Test results reported in US7592345B2, “Piperazine and [1,4]diazepan derivatives as NK antagonists” (Hoffmann-La Roche Inc., priority 2007, dated 2009).

Test system: not given
Experiment: not given
Conditions: phase II trial; cited from earlier work

Row | SMILES | activity in the treatment of negative symptoms | activity on positive symptoms of schizophrenia
1 | CC(=O)N(C)C1(c2ccccc2)CCN(CCC[C@]2(c3ccc(Cl)c(Cl)c3)CCCN(C(=O)c3ccccc3)C2)CC1 [SR 142,801, Osanetant] | inactive | active

Molecular target: T1, recombinant human NK3 receptor (Homo sapiens, UniProt P29371)
T1 construct: expressed in transfected cells; host or cells: HEK293 cells (transient expression), membranes
T1 sequence (P29371 1-465): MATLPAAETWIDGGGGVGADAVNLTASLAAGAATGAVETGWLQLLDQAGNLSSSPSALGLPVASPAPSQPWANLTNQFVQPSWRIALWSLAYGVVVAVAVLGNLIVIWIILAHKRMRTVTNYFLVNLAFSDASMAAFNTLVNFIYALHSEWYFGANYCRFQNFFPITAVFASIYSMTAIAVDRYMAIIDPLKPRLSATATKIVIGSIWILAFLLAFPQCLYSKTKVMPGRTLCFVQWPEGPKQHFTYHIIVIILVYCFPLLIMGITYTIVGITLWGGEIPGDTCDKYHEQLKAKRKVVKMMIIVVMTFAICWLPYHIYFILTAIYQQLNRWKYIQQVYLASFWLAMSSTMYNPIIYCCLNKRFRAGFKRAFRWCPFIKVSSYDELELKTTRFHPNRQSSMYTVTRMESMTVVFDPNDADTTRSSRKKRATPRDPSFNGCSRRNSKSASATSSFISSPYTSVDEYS
Experiment: [3H]SR142801 competition binding assay
Conditions: [3H]SR142801, membranes from HEK293 cells transiently expressing recombinant human NK3 receptor; read-out: hNK3 Ki
Summary of the method: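 Membranes from HEK293 cells transiently expressing human NK3 were incubated 75 min at RT with [3H]SR142801 at its KD and inhibitor (0.0003-10 μM) in Tris-HCl pH 7.4/MnCl2/phosphoramidon/BSA. Nonspecific binding used 10 μM SB222200. Ki from Hill-fitted IC50 via Cheng-Prusoff, duplicate determinations.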

Row | SMILES | Ki [nM]
2 | CC(NC(=O)C(C)(CCN1CCN(S(C)(=O)=O)[C@@H](C)C1)c1ccc(Cl)c(Cl)c1)c1ccc(Cl)c(Cl)c1 (stereo partly drawn) [Example 80, 2-(3,4-Dichloro-phenyl)-N-[1-(3,4-dichloro-phenyl)-ethyl]-4-((S)-4-methanesulfonyl-3-methyl-piperazin-1-yl)-2-methyl-butyramide] | 16.2
3 | CC(CCN1CCN2C(CCS2(=O)=O)C1)(C(=O)N[C@@H](CO)c1ccc(F)cc1)c1ccc(Cl)c(Cl)c1 (stereo partly drawn) [Example 137, 2-(3,4-Dichloro-phenyl)-4-(1,1-dioxo-hexahydro-1λ^6-thia-5,7a-diaza-inden-5-yl)-N-[(R)-1-(4-fluoro-phenyl)-2-hydroxy-ethyl]-2-methyl-butyramide] | 30.5
4 | CC(CCN1CCN(S(C)(=O)=O)CC1)(C(=O)NCc1cccc(OC(F)(F)F)c1)c1ccc(Cl)c(Cl)c1 (stereo not drawn) [Example 9, 2-(3,4-Dichloro-phenyl)-4-(4-methanesulfonyl-piperazin-1-yl)-2-methyl-N-(3-trifluoromethoxy-benzyl)-butyramide] | 190
5 | C[C@@H]1CN(CCC(C)(C(=O)N(C)Cc2cccc(C(F)(F)F)c2)c2ccc(Cl)c(Cl)c2)CCN1S(C)(=O)=O (stereo partly drawn) [Example 58, 2-(3,4-Dichloro-phenyl)-4-((R)-4-methanesulfonyl-3-methyl-piperazin-1-yl)-2,N-dimethyl-N-(3-trifluoromethyl-benzyl)-butyramide] | 56.2
6 | C[C@H]1CN(CCC(C)(C(=O)N(C)Cc2ccc(Cl)cc2)c2ccc(Cl)c(Cl)c2)CCN1S(C)(=O)=O (stereo partly drawn) [Example 86, N-(4-Chloro-benzyl)-2-(3,4-dichloro-phenyl)-4-((S)-4-methanesulfonyl-3-methyl-piperazin-1-yl)-2,N-dimethyl-butyramide] | 66.3
7 | CN(Cc1ccccc1Cl)C(=O)C(C)(CCN1CCN(S(C)(=O)=O)CC1)c1ccc(Cl)c(Cl)c1 (stereo not drawn) [Example 16, N-(2-Chloro-benzyl)-2-(3,4-dichloro-phenyl)-4-(4-methanesulfonyl-piperazin-1-yl)-2,N-dimethyl-butyramide] | 169
8 | CC(NC(=O)C(C)(CCN1CCN(S(C)(=O)=O)CC1)c1ccc(Cl)c(Cl)c1)c1ccc(F)cc1 (stereo not drawn) [Example 134, 2-(3,4-Dichloro-phenyl)-N-[1-(4-fluoro-phenyl)-ethyl]-4-(4-methanesulfonyl-piperazin-1-yl)-2-methyl-butyramide] | 229
9 | CN(Cc1ccccc1Cl)C(=O)C(CCN1CCN(S(C)(=O)=O)CC1)c1ccc(Cl)c(Cl)c1 (stereo not drawn) [Example 3, N-(2-Chloro-benzyl)-2-(3,4-dichloro-phenyl)-4-(4-methanesulfonyl-piperazin-1-yl)-N-methyl-butyramide] | 655
10 | C[C@@H]1CN(CCC(C)(C(=O)NCc2ccc(Cl)c(Cl)c2)c2ccc(Cl)c(Cl)c2)CCN1S(C)(=O)=O (stereo partly drawn) [Example 42, N-(3,4-Dichloro-benzyl)-2-(3,4-dichloro-phenyl)-4-((R)-4-methanesulfonyl-3-methyl-piperazin-1-yl)-2-methyl-butyramide] | 5.7
11 | CN(Cc1ccc(C(F)(F)F)cc1)C(=O)C(CCN1CCN(S(C)(=O)=O)CC1)c1ccc(Cl)c(Cl)c1 (stereo not drawn) [Example 5, 2-(3,4-Dichloro-phenyl)-4-(4-methanesulfonyl-piperazin-1-yl)-N-methyl-N-(4-trifluoromethyl-benzyl)-butyramide] | 136
12 | COc1cccc(CN(C)C(=O)C(C)(CCN2CCN(S(C)(=O)=O)[C@H](C)C2)c2ccc(Cl)c(Cl)c2)c1 (stereo partly drawn) [Example 48, 2-(3,4-Dichloro-phenyl)-4-((R)-4-methanesulfonyl-3-methyl-piperazin-1-yl)-N-(3-methoxy-benzyl)-2,N-dimethyl-butyramide] | 263
13 | C[C@@H]1CN(CCC(C)(C(=O)NCc2ccc(C#N)cc2)c2ccc(Cl)c(Cl)c2)CCN1S(C)(=O)=O (stereo partly drawn) [Example 57, N-(4-Cyano-benzyl)-2-(3,4-dichloro-phenyl)-4-((R)-4-methanesulfonyl-3-methyl-piperazin-1-yl)-2-methyl-butyramide] | 161
14 | C[C@H]1CN(CCC(C)(C(=O)N(C)Cc2ccc(F)c(C(F)(F)F)c2)c2ccc(Cl)c(Cl)c2)CCN1S(C)(=O)=O (stereo partly drawn) [Example 64, 2-(3,4-Dichloro-phenyl)-N-(4-fluoro-3-trifluoromethyl-benzyl)-4-((S)-4-methanesulfonyl-3-methyl-piperazin-1-yl)-2,N-dimethyl-butyramide] | 16.8
15 | C[C@@H]1CN(CCC(C)(C(=O)NCc2cc(C(F)(F)F)cc(C(F)(F)F)c2)c2ccc(Cl)c(Cl)c2)CCN1S(C)(=O)=O (stereo partly drawn) [Example 34, N-(3,5-Bis-trifluoromethyl-benzyl)-2-(3,4-dichloro-phenyl)-4-((R)-4-methanesulfonyl-3-methyl-piperazin-1-yl)-2-methyl-butyramide] | 48.1
16 | COc1ccc(CN(C)C(=O)C(CCN2CCN(S(C)(=O)=O)CC2)c2ccc(Cl)c(Cl)c2)cc1F (stereo not drawn) [Example 6, 2-(3,4-Dichloro-phenyl)-N-(3-fluoro-4-methoxy-benzyl)-4-(4-methanesulfonyl-piperazin-1-yl)-N-methyl-butyramide] | 690
17 | C[C@H]1CN(CCC(C)(C(=O)N(C)Cc2ccc(C(F)(F)F)c(F)c2)c2ccc(Cl)c(Cl)c2)CCN1S(C)(=O)=O (stereo partly drawn) [Example 70, 2-(3,4-Dichloro-phenyl)-N-(3-fluoro-4-trifluoromethyl-benzyl)-4-((S)-4-methanesulfonyl-3-methyl-piperazin-1-yl)-2,N-dimethyl-butyramide] | 19.2
